Experimental data reported in patent US8048880B2, “Treatment of cardiovascular disease and dyslipidemia using secretory phospholipase A2 (SPLA2) inhibitors and SPLA2 inhibitor combination therapies” (Anthera Pharmaceuticals, Inc., priority 2007, dated 2011).

Experiments:
ApoE−/− mice = assay: Angiotensin II-mediated atherosclerotic plaque formation and aneurysm in ApoE−/− mice (Example 2); assay type: in vivo
Method: A mouse model of accelerated atherosclerosis was utilized to determine the effect of A-002 administration on atherosclerosis and aneurysm formation. ApoE^−/− mice acclimated to the same high fat diet utilized in Example 1 were administered angiotensin II with water, angiotensin with 5% acacia, or saline infusion and water twice daily for four weeks. […] At the end of the test period, plaque coverage was assessed by three independent reviewers, and their assessments were averaged to determine plaque coverage.

[1] = test system: human subjects with CVD, specifically stable coronary artery disease; assay: Serum lipid levels in humans, A-002 twice a day for eight weeks (Example 4); assay type: in vivo
Method: (§1) 204 human subjects from the United States with CVD, specifically stable coronary artery disease, were randomized to receive placebo or A-002 via oral administration twice a day over an eight week administration period at dosages of 50 mg, 100 mg, 250 mg, or 500 mg. Levels of various lipids and inflammatory markers were measured at the outset of the trial and at the end of weeks four and/or eight. For data sets with a normal distribution, mean levels of lipids or inflammatory markers were analyzed. For data sets with non-normal distribution, median levels were analyzed. […] In addition, administration of A-002 decreased median levels of CRP (Table 11).
The combined effect of A-002 and statin administration on LDL levels was tested in a population of 332 subjects. This population consisted of the original 204 United States subjects, plus an additional 128 subjects from the Ukraine with stable CAD that received placebo or A-002 based according to the same protocol as the United States subjects. […] Similarly, A-002 decreased LDL levels in subjects receiving a variety of non-statin compounds used in the treatment of CVD, including ezetimibe, AEGR-733/ezetimibe, colesevelam hydrochloride (WelChol®), MK-0524A (Cordaptive®), lisinopril/MC-1 antibody (MC-4232), and Angiotensin Receptor Blocker (ARB)/MC-1 (MC-4262).

IL-6 = assay: Serum IL-6 concentration in humans with metabolic syndrome, A-002 twice a day (Example 4); assay type: in vivo, human; details: metabolic syndrome subpopulation, week 8
Method: as §1
Serum TG, CRP, and IL-6 levels were measured at eight weeks in 86 subjects from the ITT population diagnosed with metabolic syndrome.

[2] = test system: human subjects with CVD, specifically stable CAD; assay: Serum lipid levels and LDL particle size in humans, A-002 once a day for eight weeks (Example 6); assay type: in vivo; details: for % change vs. baseline (mean LDL particle size) / % change vs. baseline (mean [non-HDL cholesterol]) / % change vs. baseline (mean [total cholesterol]) / % change vs. baseline (median [ApoB]) / % change vs. baseline (median [TG]) / % change vs. baseline (median [oxidized LDL]) / % change vs. baseline (median [small LDL particle]) / Change in mean LDL particle size vs. baseline / Change in mean [non-HDL cholesterol] vs. baseline / Change in mean [total cholesterol] vs. baseline / Change in median [ApoB] vs. baseline / Change in median [TG] vs. baseline / Change in median [oxidized LDL] vs. baseline / Change in median [small LDL particle] vs. baseline / % change vs. baseline (mean [LDL]) / Change in mean [LDL] vs. baseline: week 8
[3] = diabetic subpopulation, week 8, A-002 twice a day
[4] = ezetimibe subpopulation (ezetimibe 10 mg), week 8, A-002 twice a day
[5] = metabolic syndrome subpopulation, week 8, A-002 twice a day
[6] = non-statin subpopulation with baseline serum LDL greater than or equal to 72 mg/dl, week 8, A-002 twice a day
[7] = non-statin subpopulation, week 4, A-002 twice a day
[8] = non-statin subpopulation, week 8, A-002 twice a day
[9] = serum, ITT population, week 8, A-002 50-500 mg twice a day
[10] = serum, ITT population, week 8, A-002 twice a day
[11] = statin subpopulation (US + Ukraine), week 4, A-002 twice a day
[12] = statin subpopulation (US + Ukraine), week 8, A-002 twice a day
[13] = statin subpopulation (US), week 8, A-002 twice a day
[14] = statin subpopulation with baseline serum LDL greater than or equal to 72 mg/dl, week 8, A-002 twice a day
[15] = subpopulation with baseline serum LDL greater than or equal to 72 mg/dl, week 8, A-002 twice a day
[16] = summary Table 20, A-002 alone, statin alone or A-002 plus statin
[17] = ITT population, A-002 once a day
[18] = serum, ITT population, A-002 250 or 500 mg once a day
[19] = statin subpopulation with baseline serum LDL greater than 70 mg/dl, A-002 once a day
[20] = statin subpopulation, A-002 once a day

SMILES: CCc1c(C(=O)C(N)=O)c2c(OCC(=O)OC)cccc2n1Cc1ccccc1 [A-002, [[3-(2-Amino-1,2-dioxoethyl)-2-ethyl-1-(phenylmethyl)-1H-indol-4-yl]oxy]acetic acid methyl ester]
- Aneurysm rate (%) (ApoE−/− mice; angiotensin II + 5% acacia + 30 mg/kg A-002 twice daily, four weeks): 0% (0/16)
- plaque content (ApoE−/− mice; angiotensin II/acacia mice, 30 mg/kg A-002 twice daily, four weeks (FIG. 4)): significantly decreased
- reduction (decrease) of mean serum small LDL particle levels ([1]; at eight weeks, United States population, text restating Tables 14 and 17): 3.25%
- decrease of mean serum LDL levels ([1]; at eight weeks, United States subjects with baseline LDL of 72 mg/dl or greater, text restating Tables 15 and 19): 8.23%
- decrease of mean serum LDL levels ([1]; at week eight, combined United States and Ukraine populations, Tables 16 and 18): 4.22%
- decrease of mean serum LDL levels ([1]; at week four, combined United States and Ukraine populations, Tables 16 and 18): 6.93%
- % change vs. baseline (mean [LDL]) [1, 3]: −16.64%
- Change in mean [LDL] vs. baseline [1, 3]: -10.6 mg/dL
- % change vs. baseline (mean [LDL]) [1, 4]: −17.8%
- Change in mean [LDL] vs. baseline [1, 4]: -15.4 mg/dL
- % change vs. baseline (median [TG]) [1, 5]: −13.99%
- Change in median [TG] vs. baseline [1, 5]: -24.0 mg/dL
- % change vs. baseline (mean [LDL]) [1, 6]: −8.23%
- Change in mean [LDL] vs. baseline [1, 6]: -9.2 mg/dL
- % change vs. baseline (mean [LDL]) [1, 7]: −6.93%
- Change in mean [LDL] vs. baseline [1, 7]: -8.7 mg/dL
- % change vs. baseline (mean [LDL]) [1, 8]: −4.22%
- % change vs. baseline (mean [small LDL particle]) [1, 8]: −3.25%
- Change in mean [LDL] vs. baseline [1, 8]: -5.3 mg/dL
- Change in mean [small LDL particle] vs. baseline [1, 8]: -24.0 nmol/L
- % change vs. baseline (mean [LDL]) [1, 9]: −10.68%
- Change in mean [LDL] vs. baseline [1, 9]: -8.2 mg/dL
- % change vs. baseline (mean [LDL particle]) [1, 10]: −7.13%
- % change vs. baseline (mean [TG]) [1, 10]: −6.67%
- % change vs. baseline (mean [small LDL particle]) [1, 10]: −8.33%
- % change vs. baseline (mean [total cholesterol]) [1, 10]: −8.16%
- Change in mean [LDL particle] vs. baseline [1, 10]: -73.6 nmol/L
- Change in mean [TG] vs. baseline [1, 10]: -10.1 mg/dL
- Change in mean [small LDL particle] vs. baseline [1, 10]: -61.3 nmol/L
- Change in mean [total cholesterol] vs. baseline [1, 10]: -12.8 mg/dL
- % change vs. baseline (mean [LDL]) [1, 11]: −14.04%
- Change in mean [LDL] vs. baseline [1, 11]: -10.8 mg/dL
- % change vs. baseline (mean [LDL]) [1, 12]: −12.48%
- Change in mean [LDL] vs. baseline [1, 12]: -9.6 mg/dL
- % change vs. baseline (mean [small LDL particle]) [1, 13]: −9.00%
- Change in mean [small LDL particle] vs. baseline [1, 13]: -66.2 nmol/L
- % change vs. baseline (mean [LDL]) [1, 14]: −16.27%
- Change in mean [LDL] vs. baseline [1, 14]: -15.0 mg/dL
- LDL levels in subjects receiving non-statin compounds used in the treatment of CVD ([1]; subjects on ezetimibe, AEGR-733/ezetimibe, colesevelam hydrochloride, MK-0524A, MC-4232 or MC-4262): decreased
- % change vs. baseline (mean [LDL]) [1, 15]: −14.68%
- Change in mean [LDL] vs. baseline [1, 15]: -14.0 mg/dL
- Observed change following administration: Mean serum [LDL] at week 4 [1, 16]: −6.93%
- Observed change following administration: Mean serum [LDL] at week 8 [1, 16]: −4.22%
- Observed change following administration: Mean serum [LDL] in ≧72 mg/dl subpopulation at week 8 [1, 16]: −8.23%
- Observed change following administration: Mean serum [small LDL particle] at week 8 [1, 16]: −3.25%
- Observed change following administration: Mean serum [LDL] at week 8 ([1]; summary Table 22, A-002 alone, ezetimibe alone or A-002 plus ezetimibe): −4.22%
- % change vs. baseline (mean [IL-6]) (IL-6): −4.29%
- Change in mean [IL-6] vs. baseline (IL-6): -0.24 pg/mL
- combined effect of A-002 and statins on LDL levels versus either compound alone ([2]; A-002 once a day, expected once additional non-statin controls are obtained): synergistic decrease in LDL levels
- % change vs. baseline (mean LDL particle size) [2, 17]: +0.6%
- % change vs. baseline (mean [non-HDL cholesterol]) [2, 17]: −9.9%
- % change vs. baseline (mean [total cholesterol]) [2, 17]: −7.3%
- % change vs. baseline (median [ApoB]) [2, 17]: −11.9%
- % change vs. baseline (median [TG]) [2, 17]: −9.8%
- % change vs. baseline (median [oxidized LDL]) [2, 17]: −3.6%
- % change vs. baseline (median [small LDL particle]) [2, 17]: −9.1%
- Change in mean LDL particle size vs. baseline [2, 17]: +0.11 nm
- Change in mean [non-HDL cholesterol] vs. baseline [2, 17]: -10.5 mg/dL
- Change in mean [total cholesterol] vs. baseline [2, 17]: -11.5 mg/dL
- Change in median [ApoB] vs. baseline [2, 17]: -8.1 mg/dL
- Change in median [TG] vs. baseline [2, 17]: -13.0 mg/dL
- Change in median [oxidized LDL] vs. baseline [2, 17]: −1.4 U/L
- Change in median [small LDL particle] vs. baseline [2, 17]: -74.0 nmol/L
- % change vs. baseline (mean [LDL]) [2, 18]: −8.3%
- Change in mean [LDL] vs. baseline [2, 18]: -7.1 mg/dL
- % change vs. baseline (mean LDL particle size) [2, 19]: +1.0%
- % change vs. baseline (mean [LDL]) [2, 19]: −15.0%
- % change vs. baseline (mean [non-HDL cholesterol]) [2, 19]: −13.7%
- % change vs. baseline (mean [total cholesterol]) [2, 19]: −10.5%
- % change vs. baseline (median [ApoB]) [2, 19]: −18.7%
- % change vs. baseline (median [oxidized LDL]) [2, 19]: −5.6%
- % change vs. baseline (median [small LDL particle]) [2, 19]: −12.3%
- Change in mean LDL particle size vs. baseline [2, 19]: +0.19 nm
- Change in mean [LDL] vs. baseline [2, 19]: -13.9 mg/dL
- Change in mean [non-HDL cholesterol] vs. baseline [2, 19]: -16.7 mg/dL
- Change in mean [total cholesterol] vs. baseline [2, 19]: -18.0 mg/dL
- Change in median [ApoB] vs. baseline [2, 19]: -13.1 mg/dL
- Change in median [oxidized LDL] vs. baseline [2, 19]: −2.8 U/L
- Change in median [small LDL particle] vs. baseline [2, 19]: -115.0 nmol/L
- % change vs. baseline (mean LDL particle size) [2, 20]: +0.5%
- % change vs. baseline (mean [LDL]) [2, 20]: −8.2%
- % change vs. baseline (mean [non-HDL cholesterol]) [2, 20]: −9.9%
- % change vs. baseline (mean [total cholesterol]) [2, 20]: −7.3%
- % change vs. baseline (median [ApoB]) [2, 20]: −11.9%
- % change vs. baseline (median [TG]) [2, 20]: −10.9%
- % change vs. baseline (median [oxidized LDL]) [2, 20]: −2.9%
- % change vs. baseline (median [small LDL particle]) [2, 20]: −8.2%
- Change in mean LDL particle size vs. baseline [2, 20]: +0.10 nm
- Change in mean [LDL] vs. baseline [2, 20]: -6.7 mg/dL
- Change in mean [non-HDL cholesterol] vs. baseline [2, 20]: -10.1 mg/dL
- Change in mean [total cholesterol] vs. baseline [2, 20]: -11.2 mg/dL
- Change in median [ApoB] vs. baseline [2, 20]: -7.9 mg/dL
- Change in median [TG] vs. baseline [2, 20]: -13.0 mg/dL
- Change in median [oxidized LDL] vs. baseline [2, 20]: −1.1 U/L
- Change in median [small LDL particle] vs. baseline [2, 20]: -66.0 nmol/L
